This is an account of results in patent US12389911B2, “Benzimidazole compound or salt thereof, agricultural and horticultural insecticidal and acaricidal agent containing said compound, and method for using same” (NIHON NOHYAKU CO., LTD., priority 2019, dated 2025).

Type in all cases: in vivo
Data set [1] relates to Two-spotted spider mite (Tetranychus urticae). The data set is described as follows: Acaricidal action on two-spotted spider mite (kidney bean leaf disk spray). Conditions: 500 ppm, adult females, 25° C., two days after treatment. The essentials:
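Kidney bean leaf disks (2 cm) carrying adult female T. urticae were sprayed with compound dispersion at 500 ppm and held at 25 °C. Dead mites counted 2 days later and corrected mortality calculated against untreated plots; 10 adults per plot, in duplicate.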

For data set [2], the system named is Green peach aphid (Myzus persicae). The data set is described as follows: Test for control efficacy on green peach aphid (foliar application on Chinese cabbage). Conditions: 500 ppm, foliar application to potted Chinese cabbage, 6 days after application. The source says: Test for Control Efficacy on Green Peach Aphid (Myzus persicae) Chinese cabbage plants were planted in plastic pots (diameter: 8 cm, height: 8 cm), green peach aphids were propagated on the plants, and the number of surviving Green peach aphids in each pot was counted. The benzimidazole compounds represented by the general formula (1) of the present invention or salts thereof were separately dispersed in water and diluted to 500 ppm. The agrochemical dispersions were applied to the foliage of the potted Chinese cabbage plants. After the plants were air-dried, the pots were kept in a greenhouse. At 6 days after the foliar application, the number of surviving Green peach aphids on the Chinese cabbage plant in each pot was counted, the control rate was calculated according to the formula shown below, and the control efficacy was evaluated according to the criteria shown below. Control rate=100−{(T×Ca)/(Ta×C)}×100 [Expression 1] Ta: the number of survivors before the foliar application in a treatment plot T: the number of survivors after the foliar application in a treatment plot Ca: the number of survivors before the foliar application in a non-treatment plot C: the number of survivors after the foliar application in a non-treatment plot Criteria • A: the control rate is 100%. • B: the control rate is 90 to 99%. • C: the control rate is 80 to 89%. • D: the control rate is 50 to 79%.

Data set [3] has as its system Small brown planthopper (Laodelphax striatellus). Description: Insecticidal test on small brown planthopper (rice seedling dip). Conditions: 500 ppm, rice seedlings dipped 30 seconds, ten 3rd-instar larvae, 8 days after inoculation. The source says:
Insecticidal Test on Small Brown Planthopper (Laodelphax striatellus)
The benzimidazole compounds represented by the general formula (1) of the present invention or salts thereof were separately dispersed in water and diluted to 500 ppm. Rice plant seedlings (variety: Nihonbare) were dipped in the agrochemical dispersions for 30 seconds. After air-dried, each seedling was put into a separate glass test tube and inoculated with ten 3rd-instar larvae of small brown planthopper, and then the glass test tubes were capped with cotton plugs. At 8 days after the inoculation, survival rates were calculated from the numbers of surviving larvae and dead larvae, the corrected mortality rate was calculated according to the formula shown below, and the insecticidal efficacy was evaluated according to the criteria shown below. Corrected mortality rate (%)=(Survival rate in a non-treatment plot−Survival rate in a treatment plot)/(Survival rate in a non-treatment plot)×100 [Expression 2] Criteria: • A: the corrected mortality rate is 100%. • B: the corrected mortality rate is 90 to 99%. • C: the corrected mortality rate is 80 to 89%. • D: the corrected mortality rate is 50 to 79%.

Turning to `CCCCCCCCc1cn(-c2nc3ccccc3n2S(=O)(=O)CC)cn1` [Compound 1-4], the “acaricidal efficacy (corrected mortality rate), activity level” value (from here on “acaricidal efficacy”) in data set [1] is recorded as “D or higher”. In addition, in data set [2], the “control efficacy (control rate), activity level” value (from here on “control efficacy (control rate)”) is “D or higher”.

Consider `CCCCCC/C=C\c1cn(-c2nc3ccccc3n2S(=O)(=O)CC)cn1` [Compound 1-6], for which the “acaricidal efficacy” value in data set [1] is reported as “D or higher”. Moreover, the “control efficacy (control rate)” value in data set [2] was “D or higher”.

With `CCS(=O)(=O)n1c(-n2cnc(Cc3ccccc3)c2)nc2ccccc21` [Compound 1-8], in data set [1], the “acaricidal efficacy” value was “D or higher”. Besides, the “control efficacy (control rate)” value in data set [2] is given as “D or higher”.

With `CCS(=O)(=O)n1c(-n2cnc(CCc3ccccc3)c2)nc2ccccc21` [Compound 1-9], the “acaricidal efficacy” value in data set [1] was “D or higher”. Moreover, in data set [3], the “insecticidal efficacy (corrected mortality rate), activity level” value (“insecticidal efficacy” for short) is “D or higher”.

Regarding `CCS(=O)(=O)n1c(-n2cnc(CCc3ccc(Cl)cc3)c2)nc2ccccc21` [Compound 1-12], in data set [1], the “acaricidal efficacy” value is “D or higher”. Also, the “control efficacy (control rate)” value in data set [2] is listed as “D or higher”.

For the compound `CCS(=O)(=O)n1c(-n2cnc(CCc3ccc(Cl)cc3Cl)c2)nc2ccccc21` [Compound 1-13], the “acaricidal efficacy” value in data set [1] was “D or higher”. Moreover, the “control efficacy (control rate)” value in data set [2] is reported as “D or higher”.

As for `CCS(=O)(=O)n1c(-n2cnc(C(F)(C(F)(F)F)C(F)(F)F)c2)nc2ccccc21` [Compound 1-22, 1-ethanesulfonyl-2-(4-heptafluoroisopropylimidazol-1-yl)benzimidazole], in data set [1], the “acaricidal efficacy” value is on record as “D or higher”. Moreover, the “insecticidal efficacy” value in data set [3] is on record as “D or higher”.

On to `CCS(=O)(=O)n1c(-n2cnc(C(F)(F)C(F)(F)C(F)(F)C(F)(F)F)c2)nc2ccccc21` [Compound 1-27], for which the “acaricidal efficacy” value in data set [1] is “D or higher”. The “control efficacy (control rate)” value in data set [2] is reported as “D or higher”.

For `CCS(=O)(=O)n1c(-n2cnc(C(=O)Nc3ccccc3)c2)nc2ccccc21` [Compound 1-30], the “control efficacy (control rate)” value in data set [2] is reported as “D or higher”.

For the compound `CCS(=O)(=O)n1c(-n2cnc(COCC(F)(F)C(F)(F)C(F)(F)F)c2)nc2ccccc21` [Compound 1-32], in data set [1], the “acaricidal efficacy” value is given as “D or higher”. Also, in data set [2], the “control efficacy (control rate)” value is listed as “D or higher”.

In the case of `CCS(=O)(=O)n1c(-n2cc(C#Cc3ccc(C(F)(F)F)cc3)cn2)nc2ccccc21` [Compound 2-8], in data set [1], the “acaricidal efficacy” value was “D or higher”. Also, in data set [2], the “control efficacy (control rate)” value is reported as “D or higher”.

As for `CCS(=O)(=O)n1c(-n2cc(C(F)(C(F)(F)F)C(F)(F)F)cn2)nc2ccccc21` [Compound 2-10], the “acaricidal efficacy” value in data set [1] is “D or higher”. The “control efficacy (control rate)” value in data set [2] is “D or higher”.

As for `CCS(=O)(=O)n1c(-n2cc(C(=O)OC(C)(C)C)cn2)nc2ccccc21` [Compound 2-11], the “acaricidal efficacy” value in data set [1] is reported as “D or higher”. Moreover, the “control efficacy (control rate)” value in data set [2] is “D or higher”.

With `CCS(=O)(=O)n1c(-n2ccc(C(F)(F)F)n2)nc2ccccc21` [Compound 2-12], the “acaricidal efficacy” value in data set [1] is recorded as “D or higher”. In addition, in data set [3], the “insecticidal efficacy” value is reported as “D or higher”.

For `CCS(=O)(=O)n1c(-n2cc(Cl)c(C(F)(F)F)n2)nc2ccccc21` [Compound 2-13], the “acaricidal efficacy” value in data set [1] was “D or higher”. Besides, the “control efficacy (control rate)” value in data set [2] is “D or higher”.

In the case of `CS(=O)(=O)n1c(-n2cc(I)c(C(F)(F)F)n2)nc2ccccc21` [Compound 2-15], the “acaricidal efficacy” value in data set [1] is reported as “D or higher”. Also, in data set [2], the “control efficacy (control rate)” value was “D or higher”.

`CCc1cn(-c2nc3ccccc3n2S(=O)(=O)CC)nc1C(F)(F)F` [Compound 2-19]: the “acaricidal efficacy” value in data set [1] was “D or higher”. Also, the “control efficacy (control rate)” value in data set [2] is “D or higher”.

Take `CCS(=O)(=O)n1c(-n2cc(C3CC3)c(C(F)(F)F)n2)nc2ccccc21` [Compound 2-20]: the “acaricidal efficacy” value in data set [1] is listed as “D or higher”. In addition, in data set [2], the “control efficacy (control rate)” value is recorded as “D or higher”.

As to `CCS(=O)(=O)n1c(-n2cc(/C=C/C(=O)OC(C)(C)C)c(C(F)(F)F)n2)nc2ccccc21` [Compound 2-24], the “acaricidal efficacy” value in data set [1] was “D or higher”. The “control efficacy (control rate)” value in data set [2] is “D or higher”.

As to `CCOC(=O)c1cn(-c2nc3ccccc3n2S(=O)(=O)CC)nc1C(F)(F)F` [Compound 2-26], the “acaricidal efficacy” value in data set [1] is “D or higher”. Further, the “control efficacy (control rate)” value in data set [2] is “D or higher”.

`CCS(=O)(=O)n1c(-n2cc(C(=O)OCC(C)(C)C)c(C(F)(F)F)n2)nc2ccccc21` [Compound 2-28]: the “acaricidal efficacy” value in data set [1] is on record as “D or higher”. In addition, the “control efficacy (control rate)” value in data set [2] is on record as “D or higher”.

Consider `CCS(=O)(=O)n1c(-n2cc(Br)c(Br)n2)nc2ccccc21` [Compound 2-34], for which the “acaricidal efficacy” value in data set [1] was “D or higher”. In data set [2], the “control efficacy (control rate)” value is “D or higher”.

Take `CCS(=O)(=O)n1c(-n2cc(Cl)c(OCC(F)(F)C(F)(F)F)n2)nc2ccccc21` [Compound 2-39]: the “acaricidal efficacy” value in data set [1] is recorded as “D or higher”. Also, the “control efficacy (control rate)” value in data set [2] is recorded as “D or higher”.

With `CCS(=O)(=O)n1c(-n2cc(Br)c(OCC(F)(F)C(F)(F)F)n2)nc2ccccc21` [Compound 2-40], in data set [1], the “acaricidal efficacy” value was “D or higher”. The “control efficacy (control rate)” value in data set [2] was “D or higher”.

As for `CCS(=O)(=O)n1c(-n2ccc(C(=O)OC(C)(C)C)n2)nc2ccccc21` [Compound 2-43], the “acaricidal efficacy” value in data set [1] was “D or higher”. Moreover, in data set [2], the “control efficacy (control rate)” value is “D or higher”.

As for `CCS(=O)(=O)n1c(-n2cc(C(=O)OC(C)(C)C)c(C(F)F)n2)nc2ccccc21` [Compound 2-51], the “acaricidal efficacy” value in data set [1] is recorded as “D or higher”. In addition, the “control efficacy (control rate)” value in data set [2] is “D or higher”.

As for `CCS(=O)(=O)n1c(-n2cc(C(=O)OC(C)C)c(C(F)(F)F)n2)nc2ccccc21` [Compound 2-53], in data set [1], the “acaricidal efficacy” value was “D or higher”. In addition, the “control efficacy (control rate)” value in data set [2] is on record as “D or higher”.

As to `CCC(C)(C)OC(=O)c1cn(-c2nc3ccccc3n2S(=O)(=O)CC)nc1C(F)(F)F` [Compound 2-54], the “acaricidal efficacy” value in data set [1] is “D or higher”. For the same compound, the “control efficacy (control rate)” value in data set [2] is given as “D or higher”.

As for `CCOC(=O)/C=C/c1nn(-c2nc3ccccc3n2S(=O)(=O)CC)cc1C(=O)OCC` [Compound 2-143], the “acaricidal efficacy” value in data set [1] was “D or higher”.

For the compound `CCS(=O)(=O)n1c(-n2cc(C(=O)OC(C)(C)C)c(/C=C/C(=O)OC(C)(C)C)n2)nc2ccccc21` [Compound 2-144], in data set [1], the “acaricidal efficacy” value is given as “D or higher”.

With `CCS(=O)(=O)n1c(-n2cc(C(=O)OC(C)(C)C)c(C#CC(C)(C)C)n2)nc2ccccc21` [Compound 2-145], the “acaricidal efficacy” value in data set [1] was “D or higher”.

Take `CCS(=O)(=O)n1c(-n2cnc(C(F)(F)F)n2)nc2ccccc21` [Compound 3-1]: in data set [1], the “acaricidal efficacy” value is “D or higher”. Further, in data set [2], the “control efficacy (control rate)” value is “D or higher”.

Consider `CCS(=O)(=O)n1c(-n2cnc(C(F)(F)C(F)(F)F)n2)nc2ccccc21` [Compound 3-2], for which the “acaricidal efficacy” value in data set [1] was “D or higher”.

On to `CCS(=O)(=O)n1c(-n2cnc(SC)n2)nc2ccccc21` [Compound 3-4], for which the “acaricidal efficacy” value in data set [1] is recorded as “D or higher”.

As to `CCS(=O)(=O)n1c(-n2ccc(C(=O)OC(C)(C)C)c2)nc2ccccc21` [Compound 7-1], the “acaricidal efficacy” value in data set [1] was “D or higher”.

Take `CCS(=O)(=O)n1c(-n2cc(C(=O)OC)c(C(=O)OC)c2)nc2ccccc21` [Compound 7-6]: the “acaricidal efficacy” value in data set [1] is listed as “D or higher”.
